Drawing on a melting point compilation (Tetko et al.; mined from patent text by program, amines drawn as free bases though some values may be those of a salt), this text covers melting point for 86 compounds.

For orientation: melting point means the temperature, or range, at which the solid turns liquid. `Cn1c(C(F)(F)F)cc(=O)n(-c2cc(Oc3ccc4cc(O)ccc4c3)c(C#N)cc2F)c1=O` displayed a melting point of 174 °C.
With `O=C(Cl)Cc1ccccc1Br` the figure was 79 °C; with `O=CNNc1ccc(NC(=S)N2CC=CC2)cc1`, 218 to 220 °C; with `Cc1ccc(OC(CCCCCc2ccc(Cl)cc2)C(=O)O)cc1` (stereo unspecified), 74 to 76 °C.
The compound `C=CCC(=O)S/C=C\C(=O)NCCCCCCCC` displayed a melting point of 60 to 62 °C.
With `CCOC(=O)C1=C(C)Nc2ccnc(OC(C)C)c2C1c1cccc2c1OCO2` (stereo unspecified) the figure was 156 to 158 °C; with `c1nnc2c3c(c(NCCCCN4CCCC4)nn12)CCCC3`, 158 to 160 °C; with `CCOC(=O)c1cc(Br)cc2c(=O)cc(-c3cccc(OCc4ccc5ccccc5c4)c3)oc12`, 211 to 213 °C.
With `CC(C)(C)CC(C)(C)c1ccc(Oc2ccc(C(F)(F)F)cc2NC(=O)Nc2cc(C(F)(F)F)cc(C(F)(F)F)c2)c(C(=O)O)c1` the figure was 233 °C.
With `O=C(O)C(=O)c1c(Cl)cc(OCCOc2ccc3ccccc3c2)cc1Cl` the figure was 155 to 156 °C.
Take `Cc1nc2c3c(ccc2n1C)[C@H]1OCCO[C@@H]1[C@@H](c1ccccc1)O3`: the melting point is 307 °C.
In the case of `CCOC(=O)c1cnn2c(C(F)(F)F)cc(-c3ccc(C(F)(F)F)cc3)cc12`, the melting point was 130 °C.
With `N=C(Nc1ccc(Cl)cc1)NC1CC2C3CC4C2C4C13` (stereo unspecified) the figure was 170 to 171 °C; with `Cc1ccc(S(=O)(=O)N(c2ccc(Cl)cc2C(N)=O)C(C)C)cc1`, 177 to 178 °C; with `Nc1nccc(-c2c[nH]c3nccc(C#Cc4ccccc4)c23)n1`, > 210 °C.
In the case of `COc1ccc(F)cc1C(C)(C)c1cc(F)ccc1O`, the melting point came to 90 °C.
With `CCOc1c(-c2ccc3cc(NS(C)(=O)=O)ccc3c2)cc(-n2ccc(=O)[nH]c2=O)cc1C(C)(C)C` the figure was 196 to 202 °C; with `CCCCc1oc2ccccc2c1C(=O)NCc1ccc2c(-c3ccc(Cl)cc3)c(OC(Cc3ccccc3)C(=O)OC)ccc2c1` (stereo unspecified), 59 to 62 °C.
With `CC(C)(C)c1cc(C=C(C#N)c2ccccn2)cc(C(C)(C)C)c1` the figure was 90 to 93 °C; with `CC(C)(C)NC(=O)NCc1ccc2c(c1)CN(C1CCC(=O)NC1=O)C2=O` (stereo unspecified), 260 to 262 °C.
With `O=C(O)C1CCCN(C(=O)c2cccc(C(=O)C3CCC4(CCNCC4)CC3)c2)C1` (stereo unspecified) the figure was 146 to 148 °C; with `N#Cc1c(C#N)c(Oc2ccc3ccccc3c2)c(Oc2ccc3ccccc3c2)c(Oc2ccc3ccccc3c2)c1Oc1ccc2ccccc2c1`, 188 to 190 °C.
Regarding `COc1ccccc1C(=O)NN=C(CC(C)C)c1ccncc1`, the melting point came to 130 °C.
Regarding `N#Cc1ccccc1N1CCN(CCCCCC(=O)O)CC1`, the melting point was 120 °C.
With `Cc1oc(C2(C)CC=CCC2)nc1CC(=O)O` (stereo unspecified) the figure was 144 to 145 °C; with `O=C(C=Cc1ccc([N+](=O)[O-])cc1)N1CCc2c([nH]c3ccccc23)C1c1ccc2c(c1)OCO2` (stereo unspecified), 158 °C.
With `COc1cc(OC)c2c(=O)[nH]c(-c3ccc(OCCNC(C)C)c(-c4ccc(S(C)(=O)=O)cc4)n3)nc2c1` the figure was 114 to 116 °C; with `CS(=O)(=O)c1cccc(-n2c(=O)n(Cc3ccncc3)c(=O)c3cccnc32)c1`, 254 to 256 °C; with `Clc1ccc2c(c1)C(c1ccccc1)=NCc1nnc(-c3ccccc3)n1-2`, 194 °C.
For the compound `O=c1nc(-c2ccccc2)c2ccccc2n1CC(F)(F)F`, the melting point stood at 182 °C.
`COc1cc(-c2nc(C)cs2)cc(OC)c1OC` showed a melting point of 105 to 106 °C.
With `CCCCCCNC(=O)NC1CCCc2sccc21` (stereo unspecified) the figure was 122 to 124 °C.
With `O=[N+]([O-])c1ccc(F)c(-c2ccccn2)c1F` the figure was 84 to 86 °C; with `Cn1cncc1C(O)(c1ccc(Cl)cc1)c1ccc2nc(-c3cccnc3)nc(-c3cccc(Cl)c3)c2c1` (stereo unspecified), 178 °C; with `CN1C(C(=O)NC2N=C3CCSC=C3S2)=C(O)c2ccc3ccccc3c2S1(=O)=O` (stereo unspecified), 255 °C.
`O=C(O)c1ccc(-c2noc(-c3ccc(C(F)(F)F)cc3)n2)cc1`: the melting point was in the range of 286 to 287 °C.
With `Cc1noc(NC(=O)N2CCN(c3nc(-c4cccc(Cl)c4)cs3)CC2)c1C` the figure was 201 to 202 °C; with `CCOC(=O)C1(Br)Oc2ccc(OC(C)=O)cc2OC1Br` (stereo unspecified), 58 °C; with `CCN1CCCC1CNC(=O)Cc1ccc(-c2ccc3c(=O)c(-c4ncc[nH]4)c(N)n(CC)c3n2)cc1F` (stereo unspecified), 100 °C.
With `CCOC(=O)C1=CC(NC(=NC(=O)OC(C)(C)C)NC(=O)OC(C)(C)C)C(NC(C)=O)C(C(O)C2COC(C)(C)O2)O1` (stereo unspecified) the figure was 118 to 120 °C; with `CCNC(=O)N(C)C1c2ccccc2Oc2ccccc21`, 139 to 141 °C; with `COc1ccccc1-c1cccn2nc(Nc3ccc4c(c3)CCN(CCS(C)(=O)=O)CC4)nc12`, 91 to 94 °C.
In the case of `CCN(CC)C(=O)Cc1cccc(Oc2ccccc2F)c1N`, the melting point fell in the range of 159 to 160 °C.
With `CSc1ccc2c(C(=O)C(F)(F)F)c[nH]c2c1` the figure was 237 to 239 °C; with `CN(N)c1cc(N)nc(N)n1`, 214 to 217 °C.
The compound `CC(C)(C)OC(=O)CNc1ccccc1C(=O)c1ccccc1` had a melting point of 88 °C.
With `CCOC(=O)c1cc(CC)sc1Nc1ccccc1N` the figure was 50 to 52 °C; with `CC[C@H](COC)n1cc(Cl)nc(N2CCc3cc(OC)cc(C#N)c32)c1=O`, 141 to 142 °C.
With `NN1C(=O)C(C(=O)C(Cc2ccc3ccccc3c2)NC(=O)OCc2ccccc2)C1Oc1ccccc1` (stereo unspecified) the figure was 205 to 206 °C; with `Fc1cc2c(c(OCCNCCCc3c[nH]c4ccc(F)cc34)c1)OCCC2`, 137 to 138 °C.
With `NC(=S)NN1CCOCC1` the figure was 168 °C.
`COc1ccc(C(O)Cc2ccncc2)c2c1OCC2C` (stereo unspecified) gave a melting point of 96 to 100 °C.
`CC(=O)Nc1ccc(N(C)C(=O)OCc2ccccc2)c(O)c1` registered a melting point of 174 °C.
With `N#Cc1cnc2cc3ccccc3cc2c1Nc1ccc(F)c(Cl)c1` the figure was 257 to 259 °C; with `CN1CCN(c2nc(=NC(=O)NC(C)(C)C)ss2)CC1`, 169 to 172 °C; with `Cc1cc(-c2cccc(C(F)(F)F)c2)c2ncc(OC(F)F)nc2c1`, 105 to 106 °C.
`CCCCOc1cc(/C=C(\OCC)C(=O)O)ccc1CCCc1ccc(OS(=O)(=O)CCCC)c(OC)c1` gave a melting point of 75 °C.
With `N#Cc1c(N2CCN(C(=O)C3CCCS3)CC2)c2ccccc2n(Cc2ccc(F)cc2)c1=O` (stereo unspecified) the figure was 133 to 140 °C; with `Cc1nc(CNC(=O)c2sc(-n3cnn(Cc4ccc(F)cc4)c3=O)cc2C)cs1`, 148 to 150 °C; with `CCCCCCN(C(=O)Cc1ccccc1)c1nnc(C)s1`, 90 °C.
With `COC1=NC(C)=C(C(=O)OC(C)C)C(c2cccc([N+](=O)[O-])c2)N1C(=O)N(C)Cc1ccccc1` (stereo unspecified) the figure was 145 to 146 °C; with `CC(=O)Nc1ccc(C(=O)C=CC(=O)O)cc1`, 206 to 207 °C; with `COc1cccc(C23CCN(C(=O)c4ccccc4)CC2CCC(=O)C3)c1` (stereo unspecified), 78 °C.
With `CNC(=O)c1ccc(-c2ccc3nnn(Cc4ccc5ncccc5c4)c3n2)cc1` the figure was 220 to 222 °C.
Compound `CC(C)CC(NC(=O)CCc1ccccc1)C(=O)N[C@@H](Cc1ccccc1)C(=O)CSCc1ccco1` (stereo partly specified) yielded a melting point of 117 to 119 °C.
Turning to `O=C(Cc1ccc(CN2CCCC2)cc1)NCc1ccc(Br)cc1`, the melting point was 107 to 109 °C.
In turn, `O=C(O)Cc1cscc1Nc1c(Cl)cccc1Cl` returned a melting point of 179 to 180 °C.
With `CC(=O)OC1CCC2(C)C(CCC3C4CC(C)C(O)(C(C)=O)C4(C)CCC32F)C1` (stereo unspecified) the figure was 150 °C.
Turning to `CCn1c(=O)c2[nH]c(/C=C/c3ccccc3OC)nc2n(CC)c1=O`, the melting point is > 270 °C.
With `Cc1cccc(C)c1Sc1cc(C(C)(C)C)cc(C(C)(C)C)c1O` the figure was 101 to 102 °C; with `CCc1oc2ccccc2c1C(=O)c1ccc(OCCO)cc1`, 78 to 83 °C.
Compound `COCc1cnc2c(N)cc(C)cc2c1Cl` yielded a melting point of 135 to 138 °C.
As to `CCOC(=O)c1oc(I)nc1C`, the melting point lay in the range of 110 to 112 °C.
With `COc1ccc2oc(Cc3cccc(C(F)(F)F)c3)c(CC#N)c2c1` the figure was 116 °C; with `CCCCCCCCCCCCCCCCCCSC(=O)Nc1ccc(NC(=O)NS(=O)(=O)c2ccc(OC)cc2)cc1`, 195 °C; with `Nc1ccc(C2CCc3ccccc3O2)cc1` (stereo unspecified), 85 to 87 °C.
In the case of `Cn1nc(Oc2ccc(N)c(N)c2)cc1C(F)(F)F`, the melting point is 109 to 111 °C.
`O=C(Nc1noc2ccccc12)N1CCN(c2nc(-c3ccccc3)co2)CC1` displayed a melting point of 171 to 172 °C.
Take `COC(=O)C1(C)CN(C(=S)Nc2ccc(Cl)cc2)N=C1c1ccc(Cl)cc1` (stereo unspecified): the melting point fell in the range of 69 to 78 °C.
Regarding `Cc1cc2c(cc1Cl)C(CC(=O)O)(c1ccccc1OC(C)C)C(=O)N2` (stereo unspecified), the melting point was 148 to 150 °C.
`Oc1cccc(CCCc2cc(C(c3ccccc3)c3ccccc3)on2)c1`: the melting point lay in the range of 114 to 117 °C.
Compound `COCCOc1ccc(CCCOC(=O)N2CCOCC2)c(Oc2ncc(C(F)(F)F)cc2Cl)c1` came in with a melting point of 82.3 to 82.4 °C.
`NS(=O)(=O)c1cccc(-c2cccc(-c3nc(-c4ccc(C(F)(F)F)cc4F)cc(C(F)(F)F)n3)c2)c1`: the melting point turned out to be 224 °C.
For `O=c1c(Cl)c(S(=O)(=O)C2CCCCC2)cnn1-c1ccccc1`, the melting point was in the range of 195 to 196 °C.
With `CCN(CC)C(=O)c1c(OC)cccc1S(N)(=O)=O` the figure was 190 to 194 °C; with `COC(=O)c1ccc(S(=O)(=O)C2CCN(CCc3ccc(F)cc3F)CC2)cc1`, 123 to 124 °C.
